The source of these data is patent publication US20170166558A1, “O-GLCNAC TRANSFERASE (OGT) INHIBITORS AND USES THEREOF” (President and Fellows of Harvard College, priority 2014, published 2017).

The subject of experiment [1] is OGT in CHO cells. The experiment is described as follows: Immunoblotting of global O-GlcNAcylation (RL2) in CHO cells. Format: cell-based, Chinese hamster. The method, then: (§1) In vivo inhibition of glycosylation: For all immunoblotting experiments, CHO-K1 (CHO) cells were grown in F12-K media supplemented with 10% FBS and antibiotics at 37° C. in a 5% CO2 incubator. Cells were treated by adding indicated inhibitor in DMSO vehicle (0.5% final vehicle concentration) upon reaching 70% confluence. After indicated treatment length, cells were harvested by aspirating growth media and washing with ice cold 1× PBS. Cells were subsequently lysed in boiling 1% SDS/20 mM HEPES 7.9. After cooling to room temperature, 1 mM PMSF, 10 μM PUGNAC, 10 μM TMG and 1× Complete protease inhibitor cocktail were added to the solution. The mixture was sonicated and then subjected to a 5 minute incubation at 95° C. The samples were centrifuged for 15 minutes at 20,000×g and the supernatant was collected and the total protein was measured by BCA assay (BIO-RAD).
(§2) The sample was separated by SDS-PAGE (Bio-Rad 4-15%, Cat: 345-0028), transferred to a nitrocellulose membrane (iBlot, Invitrogen) and probed with the indicated antibody. Tyipcally, membranes were blocked with 4% BSA in 1× TBS+0.04% tween-20 for 1 hour before incubating with antibody (typically diluted 1:1000 in 4% BSA inlx TBS+0.04% tween-20) overnight at 4° C. Membranes were then washed three times with 1× TBS+0.04% tween-20 and incubated with secondary antibody (typically diluted 1:5000 in 4% BSA in 1× TBS+0.04% tween-20) for 1 hour at room temperature. Lastly, membranes were washed 3× with 1× TBS+0.04% tween-20 and imaged with ECL. D283-Med cells were treated as above but grown in F12-K media supplemented with 10% FBS and antibiotics. HEK, HeLa and LNCaP cells were treated as above but grown in RPMI media supplemented with 10% FBS and antibiotics.
Background: A western blot detects proteins with antibodies after separation by electrophoresis.

Experiment [2] concerns cell surface glycans of CHO cells. The experiment is described as follows: Lectin blots of cell surface glycans of CHO cells. The note with it: 50 μM, 24 hours. Format: cell-based, Chinese hamster. The procedure: Lectin blots were performed with the CHO-K1 cell lysate as prepared above. […] The biotin label on the lectins was visualized with incubation with Streptavidin-HRP (Pierce) followed by ECL detection and imaging.

Experiment [3] has as its system OGT in CHO cells. The experiment is described as follows: Markers of OGT inhibition in CHO cells (Nup62 mass shift, OGA levels, H2B-S112 O-GlcNAc). Format: cell-based, Chinese hamster. The procedure: as §1, §2
The subject of experiment [4] is CHO, HEK-293, HeLa and D283-Med cells. The experiment is described as follows: Immunoblotting of global O-GlcNAcylation in various mammalian cell types. Format: cell-based. The note with it: 50 μM, 24 hours. The procedure: as §1
The sample was separated by SDS-PAGE (Bio-Rad 4-15%, Cat: 345-0028), transferred to a nitrocellulose membrane (iBlot, Invitrogen) and probed with the indicated antibody. Tyipcally, membranes were blocked with 4% BSA in 1× TBS+0.04% tween-20 for 1 hour before incubating with antibody (typically diluted 1:1000 in 4% BSA inlx TBS+0.04% tween-20) overnight at 4° C. […]

Turning to `CC(=O)N[C@@H]1[C@@H](OC(C)=O)[C@H](OC(C)=O)[C@@H](COC(C)=O)S[C@@H]1OC(C)=O` [Ac4-5SGlcNAc, reference compound], the “Onset of reduction of global O-GlcNAcylation” value in the experiment with OGT in CHO cells [1] (50 μM, 8-hour time course) is reported as “only at four hours”. Moreover, the “Effect on global O-GlcNAcylation” value in the experiment on OGT in CHO cells [1] (24 hours, up to 50 μM) is recorded as “reduced global O-GlcNAcylation to a greater extent than OSMI-1”. Further, in experiment [2], the “Changes in bands detected by ConA, PHA-L, ECL, GSL-I, PNA or DBA” value is listed as “minimal changes”; the “Changes in glycans detected by Jacalin, PHA-E and LCA” value is “dramatic changes”. In addition, the “Cellular OGA levels” value in the experiment with OGT in CHO cells [3] was “reduced cellular OGA”. Also, in experiment [4], the “Global O-GlcNAc levels in four cell lines” value is on record as “reduce global O-GlcNAc levels in all four lines examined”.
